Assays:
Format in all cases: cell-based
[1] = biological target: T1, VR1 (human) (Homo sapiens, UniProt Q8NER1); experiment: Functional FLIPR Ca2+ inflow assay on VR1 (human), CHO K1 cells stably transfected with the VR1 gene; settings: test compound 10 μM; for VR1 (human) (% inhibition compared to 10 μM CP) / inhibition at 10 µM: then 100 nM capsaicin after 5 min, relative to maximum inhibition with 10 μM capsaicin; for VR1 (human) (% stimulation compared to 10 μM CP) / activation at 10 µM: Ca2+ signal relative to 10 μM capsaicin (CP); for inhibition at 10 µM / activation at 10 µM: CHO-K1; for inhibition at 10 µM: read-out: VR1 (human) (% inhibition compared to 10 μM CP); for activation at 10 µM: read-out: VR1 (human) (% stimulation compared to 10 μM CP)
T1 construct: expressed in transfected cells; host or cells: CHO K1 cells (ECACC)
From the text: II. Functional Testing Carried Out on the Vanilloid Receptor (VR1)
The agonistic or antagonistic effect of the substances to be tested can also be determined on the vanilloid receptor (VR1) using the following assay. According to this assay, the Ca^2+ inflow is quantified through the channel using a Ca^2+-sensitive dye (type Fluo-4, Molecular Probes Europe BV, Leiden, Netherlands) in a fluorescent imaging plate reader (FLIPR, Molecular Devices, Sunnyvale, USA).
Chinese hamster ovary cells (CHO K1 cells, European Collection of Cell Cultures (ECACC) United Kingdom) were stably transfected with the VR1 gene. For functional testing, these cells were plated out on poly-D-lysine-coated black 96 well plates having a clear base (BD Biosciences, Heidelberg, Germany) at a density of 25,000 cells/well. The cells were incubated overnight at 37° C. and 5% CO2 in a culture medium (Ham's F12 nutrient mixture, 10% by volume of FCS (foetal calf serum), 18 μg/ml L-proline). The next day the cells were incubated with Fluo-4 (Fluo-4 2 μM, 0.01% by volume of Pluronic F127, Molecular Probes in HBSS (Hank's buffered saline solution), Gibco Invitrogen GmbH, Karlsruhe, Germany) for 30 minutes at 37° C. Subsequently, the plates were washed three times with HBSS buffer and after further incubation for 15 minutes at room temperature used for Ca^2+ measurement in a FLIPR assay. The Ca^2+-dependent fluorescence was measured before and after the addition of the substances to be tested (λex wavelength=488 nm, λem=540 nm). Quantification was carried out by measuring the highest fluorescence intensity (FC, Fluorescence Counts) over time.
The FLIPR protocol consists of 2 substance additions. First the compounds to be tested (10 μM) were pipetted onto the cells and the Ca^2+ inflow was compared with the control (capsaicin 10 μM) (% activation based on the Ca^2+ signal after the addition of 10 μM capsaicin). After 5 minutes' incubation, 100 nM of capsaicin were administered and the Ca^2+ inflow was also determined.
Desensitising agonists and antagonists led to suppression of the Ca^2+ inflow. The % inhibition was calculated compared to the maximum achievable inhibition with 10 μM of capsaicin.

[2] = biological target: T2, VR1 (rat) (Rattus norvegicus, UniProt O35433); experiment: Functional FLIPR Ca2+ inflow assay on rat-species vanilloid receptor 1 in rat dorsal root ganglia cells; settings: test compound 10 μM; for VR1 (rat) (% inhibition compared to 10 μM CP) / inhibition at 10 µM: then 100 nM capsaicin after 5 min, relative to maximum inhibition with 10 μM capsaicin; for VR1 (rat) (% stimulation compared to 10 μM CP) / activation at 10 µM: Ca2+ signal relative to 10 μM capsaicin (CP); for inhibition at 10 µM: read-out: VR1 (rat) (% inhibition compared to 10 μM CP); for activation at 10 µM: read-out: VR1 (rat) (% stimulation compared to 10 μM CP)
T2 construct: from tissue; host or cells: primary cells dissociated from rat dorsal root ganglia
From the text: I. Functional Testing Carried Out on the Vanilloid Receptor 1 (VR1/TRPV1 Receptor)
The agonistic or antagonistic effect of the substances to be tested can be determined on the rat-species vanilloid receptor 1 (VR1/TRPV1) using the following assay. According to this assay, the Ca^2+ inflow is quantified through the receptor channel using a Ca^2+-sensitive dye (type Fluo-4, Molecular Probes Europe BV, Leiden, Netherlands) in a fluorescent imaging plate reader (FLIPR, Molecular Devices, Sunnyvale, USA).
Complete medium: 50 mL HAMS F12 nutrient mixture (Gibco Invitrogen GmbH, Karlsruhe, Germany) with
10% by volume of FCS (foetal calf serum, Gibco Invitrogen GmbH, Karlsruhe, Germany, […]);
2 mM L-glutamine (Sigma, Munich, Germany);
1% by weight of AA solution (antibiotic/antimyotic solution, PAA, Pasching, Austria) and 25 ng/ml NGF medium (2.5 S, Gibco Invitrogen GmbH, Karlsruhe, Germany)
Cell culture plate: Poly-D-lysine-coated, black 96 well plates having a clear base (96 well black/clear plate, BD Biosciences, Heidelberg, Germany) were additionally coated with laminin (Gibco Invitrogen GmbH, Karlsruhe, Germany), the laminin being diluted with PBS (Ca—Mg-free PBS, Gibco Invitrogen GmbH, Karlsruhe, Germany) to a concentration of 100 μg/mL. Aliquots having a laminin concentration of 100 μg/mL were removed and stored at −20° C. The aliquots were diluted with PBS in a ratio of 1:10 to 10 μg/mL laminin and in each case 50 μL of the solution were pipetted into a recess in the cell culture plate. The cell culture plates were incubated for at least two hours at 37° C., the excess solution was removed by suction-filtration and the recesses were each washed twice with PBS. The coated cell culture plates were stored with excess PBS which was not removed until just before the feeding of the cells.
The vertebral column was removed from decapitated rats and placed immediately into cold HBSS buffer (Hank's buffered saline solution, Gibco Invitrogen GmbH, Karlsruhe, Germany), i.e. buffer located in an ice bath, mixed with 1% by volume (percent by volume) of an AA solution (antibiotic/antimyotic solution, PAA, Pasching, Austria). The vertebral column was cut longitudinally and removed together with fasciae from the vertebral canal. Subsequently, the dorsal root ganglia (DRG) were removed and again stored in cold HBSS buffer mixed with 1% by volume of an AA solution. The DRG, from which all blood remnants and spinal nerves had been removed, were transferred in each case to 500 μL of cold type 2 collagenase (PAA, Pasching, Austria) and incubated for 35 minutes at 37° C. After the addition of 2.5% by volume of trypsin (PAA, Pasching, Austria), incubation was continued for 10 minutes at 37° C. After complete incubation, the enzyme solution was carefully pipetted off and 500 μL of complete medium were added to each of the remaining DRG. The DRG were in each case suspended several times, drawn through cannulae No. 1, No. 12 and No. 16 using a syringe and transferred to a 50 mL Falcon tube which was filled up to 15 mL with complete medium. The contents of each Falcon tube was in each case filtered through a 70 μm Falcon filter element and centrifuged for 10 minutes at 1,200 rpm and room temperature. The resulting pellet was in each case taken up in 250 μL of complete medium and the number of cells determined.
The number of cells in the suspension was set to 3×10^5 per mL and 150 μL of this suspension were in each case introduced into a recess in the cell culture plates coated as described hereinbefore. In the incubator the plates were left for two to three days at 37° C., 5% by volume of CO2 and 95% relative humidity. […]

[3] = biological target: T2, VR1 (rat); experiment: as above; settings: against capsaicin (CAP)

T2 sequence (O35433 whole entry): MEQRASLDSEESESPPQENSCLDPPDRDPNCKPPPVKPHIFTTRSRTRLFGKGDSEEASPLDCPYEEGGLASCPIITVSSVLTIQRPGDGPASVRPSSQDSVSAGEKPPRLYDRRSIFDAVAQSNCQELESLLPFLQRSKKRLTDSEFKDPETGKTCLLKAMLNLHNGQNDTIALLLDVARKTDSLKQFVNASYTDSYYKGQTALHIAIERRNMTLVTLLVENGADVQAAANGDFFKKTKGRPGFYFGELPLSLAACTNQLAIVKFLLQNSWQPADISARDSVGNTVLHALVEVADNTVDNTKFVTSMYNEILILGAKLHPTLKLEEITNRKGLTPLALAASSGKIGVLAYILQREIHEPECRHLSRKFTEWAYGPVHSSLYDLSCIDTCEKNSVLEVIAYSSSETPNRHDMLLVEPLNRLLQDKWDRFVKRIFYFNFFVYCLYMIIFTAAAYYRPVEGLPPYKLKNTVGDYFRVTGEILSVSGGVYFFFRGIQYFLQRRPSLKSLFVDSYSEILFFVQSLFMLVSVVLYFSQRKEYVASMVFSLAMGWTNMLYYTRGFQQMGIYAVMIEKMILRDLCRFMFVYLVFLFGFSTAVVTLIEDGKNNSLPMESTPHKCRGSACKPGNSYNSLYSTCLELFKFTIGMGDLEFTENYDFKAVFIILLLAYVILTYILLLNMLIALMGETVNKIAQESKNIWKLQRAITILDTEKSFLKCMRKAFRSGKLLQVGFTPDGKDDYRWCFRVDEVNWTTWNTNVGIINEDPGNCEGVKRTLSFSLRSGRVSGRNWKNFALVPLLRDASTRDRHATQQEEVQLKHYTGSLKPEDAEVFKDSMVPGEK
T1 sequence (Q8NER1 whole entry): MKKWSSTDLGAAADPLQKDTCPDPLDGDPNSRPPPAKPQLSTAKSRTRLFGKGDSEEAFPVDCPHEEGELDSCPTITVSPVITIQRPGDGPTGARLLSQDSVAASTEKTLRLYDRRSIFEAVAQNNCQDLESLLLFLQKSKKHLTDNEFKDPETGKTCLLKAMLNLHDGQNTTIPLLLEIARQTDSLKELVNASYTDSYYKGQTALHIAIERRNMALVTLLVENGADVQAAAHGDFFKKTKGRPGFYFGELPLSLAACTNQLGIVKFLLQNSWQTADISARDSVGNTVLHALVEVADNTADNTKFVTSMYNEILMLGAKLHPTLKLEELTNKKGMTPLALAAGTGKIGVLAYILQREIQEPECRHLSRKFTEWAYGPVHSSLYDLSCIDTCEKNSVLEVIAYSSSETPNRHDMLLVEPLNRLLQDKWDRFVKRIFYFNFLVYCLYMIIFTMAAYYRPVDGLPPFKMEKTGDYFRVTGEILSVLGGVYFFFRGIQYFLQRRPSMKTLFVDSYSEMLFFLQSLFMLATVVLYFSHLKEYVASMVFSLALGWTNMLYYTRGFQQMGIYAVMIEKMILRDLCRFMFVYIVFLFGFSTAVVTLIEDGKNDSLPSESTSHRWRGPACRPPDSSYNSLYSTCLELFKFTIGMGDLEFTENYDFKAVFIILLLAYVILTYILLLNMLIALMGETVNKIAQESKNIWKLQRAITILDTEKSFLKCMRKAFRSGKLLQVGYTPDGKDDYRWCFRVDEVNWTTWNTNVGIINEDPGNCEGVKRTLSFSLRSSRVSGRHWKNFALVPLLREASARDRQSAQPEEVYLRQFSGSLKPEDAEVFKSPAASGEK

| Compound | VR1 (human) (% inhibition compared to 10 μM CP) [1] | VR1 (human) (% stimulation compared to 10 μM CP) [1] | VR1 (rat) (% inhibition compared to 10 μM CP) [2] | VR1 (rat) (% stimulation compared to 10 μM CP) [2] | inhibition at 10 µM [1] | activation at 10 µM [1] | inhibition at 10 µM [2] | activation at 10 µM [2] | IC50 [3] | Ki [3] |
| --- | --- | --- | --- | --- | --- | --- | --- | --- | --- | --- |
| CC(C)(C)C1CCC2(CC1)CC(C(=O)N1CCCN(c3ncccc3Cl)CC1)=NO2 (stereo not drawn) [Example 21, trans-(8-tert-butyl-1-oxa-2-azaspiro[4.5]dec-2-en-3-yl)-[4-(3-chloropyridin-2-yl)-[1,4]diazepan-1-yl]methanone] | 6.75% | −0.05% | 52.32% | 0.37% |  |  |  |  |  |  |
| CC(C)(C)[C@H]1CC[C@@]2(CC1)CC(C(=O)N1CCCN(c3ncccc3Cl)CC1)=NO2 [Example 22, cis-(8-tert-butyl-1-oxa-2-azaspiro[4.5]dec-2-en-3-yl)-[4-(3-chloropyridin-2-yl)-[1,4]diazepan-1-yl]methanone] | 0.14% | 0.13% | 16.63% | −0.37% |  |  |  |  |  |  |
| CC(C)(C)C1CCC2(CC1)CC(C(=O)NCc1ccncc1)=NO2 (stereo not drawn) [Example 23, trans-8-tert-butyl-1-oxa-2-azaspiro[4.5]dec-2-ene-3-carboxylic acid (pyridin-4-ylmethyl)amide] | 54.21% | 23.79% | 69.46% | 55.21% |  |  |  |  |  |  |
| CC(C)(C)[C@H]1CC[C@@]2(CC1)CC(C(=O)NCc1ccncc1)=NO2 [Example 24, cis-8-tert-butyl-1-oxa-2-azaspiro[4.5]dec-2-ene-3-carboxylic acid (pyridin-4-ylmethyl)amide] | 83.01% | 91.72% | 97.79% | 87.96% |  |  |  |  |  |  |
| CC(C)(C)[C@H]1CC[C@]2(CC1)CC(C(=O)NCc1ccc(NS(C)(=O)=O)c(F)c1)=NO2 [Example 25, trans-8-tert-butyl-1-oxa-2-azaspiro[4.5]dec-2-ene-3-carboxylic acid-3-fluoro-4-methanesulphonylaminobenzylamide] |  |  |  |  | 56.5% | 0.16% | 98.3% | 1.04% |  |  |
| CC(C)(C)c1ccc(NC(=O)C2CCC3(CC2)CC(c2ccccc2)=NO3)cc1 (stereo not shown) [Example 50, 3-phenyl-1-oxa-2-azaspiro[4.5]dec-2-ene-8-carboxylic acid-(4-tert-butylphenyl)amide] |  |  |  |  | 64% | 15% | 97% | 60% | 545 nM | 63.7 nM |
| CC(C)(C)c1ccc(NC(=O)[C@H]2CC[C@@]3(CC2)CC(c2ccccc2)=NO3)cc1 [Example 51, 3-phenyl-1-oxa-2-azaspiro[4.5]dec-2-ene-8-carboxylic acid-cis-(4-tert-butylphenyl)amide] | 25% | 17% | 91% | 73% |  |  |  |  |  |  |
| COc1cccc(C2=NOC3(CCC(C(=O)Nc4ccc(C(C)(C)C)cc4)CC3)C2)c1 (stereo not shown) [Example 66, N-(4-tert-butylphenyl)-3-(3-methoxyphenyl)-1-oxa-2-azaspiro[4.5]dec-2-ene-8-carboxamide] |  |  |  |  | 54% | 53% | 101% | 87% |  |  |
| CC(C)(C)c1ccc(NC(=O)C2CCC3(CC2)CC(C(=O)N2CCN(c4ncccc4Cl)CC2)=NO3)cc1 (stereo not shown) [Example 84, N-(4-tert-butylphenyl)-3-(4-(3-chloropyridin-2-yl)piperazin-1-carbonyl)-1-oxa-2-azaspiro[4.5]dec-2-ene-8-carboxamide] |  |  |  |  | 31% | 33% | 103% | 61% |  |  |
| CC(C)(C)C1CCC2(CC1)CC(C(=O)Nc1ccc(NS(C)(=O)=O)c(F)c1)=NO2 (stereo not shown) [Example 90, 8-tert-butyl-N-(3-fluoro-4-(methylsulphonamido)phenyl)-1-oxa-2-azaspiro[4.5]dec-2-ene-3-carboxamide] |  |  |  |  | 34% | 36% | 100% | 43% |  |  |
| ((5R,8R)-8-tert-butyl-1-oxa-2-azaspiro[4.5]dec-2-en-3-yl)(4-(3-chloropyridin-2-yl)-2,6-dimethylpiperazin-1-yl)methanone [Example 58] | 67% | 27% | 107% | 46% |  |  |  |  |  |  |
